Key:
[1] = test system: brain field potentials (EEG power spectrum); conditions: rats, cited from earlier work; for change of EEG theta, alpha1,2 and beta1,2 power: α2-adrenoceptor agonists, Dimpfel and Schober, 2001; for change of EEG alpha1,2 and beta1,2 power: general anaesthetics, Dimpfel, 2003
[2] = test system: electrical activity of the human brain; test: Quantitative EEG (CATEEM) during and after 24 h intravenous infusion in healthy male volunteers, placebo-controlled crossover; assay type: in vivo; conditions: 300 mg/kg iv over 24 h
From the text: The present inventors have now studied the effect of ketosis, in the exemplified case induced by administration of sodium salt of (R)-3-hydroxybutyrate (herein referred to as KTX 0101) as a single intravenous infusion of increasing dose and duration to 3 groups (Parts A, B and C) with 3 cohorts of 3 subjects each in Part A, and 1 cohort in each of Parts B (n=3) and C (n=8). Parts A and B were a partial crossover design and Part C was a crossover design. For details see protocol.
A 17-electrode EEG was recorded pre-dose and at 6, 12 and 24 h during the infusion and 1 and 24 hours following the end of drug administration. Recordings were performed under two physiological conditions, namely with 5 minutes eyes open and eyes closed, respectively. KTX 0101 was administered intravenously at a dose of 300 mg/kg given over 24 hours to 1 cohort (n=8) in a double blind placebo controlled crossover design (Part C of the study).
Single rising doses of KTX 0101 or placebo were administered to groups of healthy male volunteers according to a pre-specified dose escalation schedule (see main report). Incremental doses were administered in a stepwise manner proceeding to each higher dose only if the drug was well tolerated and the criteria for stopping dosing had not been met. The last two cohorts obtained the highest doses of 300 mg/kg and consisted of enough volunteers to justify a preliminary evaluation of recorded EEG data in order to obtain information on the pharmacodynamic effects of the potential drug. After recording of pre dose values the infusion was started and continued for 24 hours. EEG recordings took place during the infusion (6, 12 and 24 h) and 1 and 24 h after the end of the infusion. Each recording period was performed under 5 minutes eyes open and 5 minutes of eyes closed condition.
The EEG was recorded bipolarly from 17 surface electrodes according to the international 10/20 system with Cz as a physical reference electrode (Computer aided topographical electro-encephalo-metry: CATEEM® from MediSyst GmbH, 35440 Linden, Germany), using an electrocap. The raw signals were amplified, digitized (2048 Hz/12 bit) and transmitted via fiber optical devices to the computer. […] ECG and EOG were recorded in one channel each in order to facilitate detection of those signals superposing on to the EEG. […] The amount of rejected data was determined automatically and given in percent of total recording time. […] The data was recorded under two physiological conditions over a period of 5 minutes each (eyes open and eyes closed).
Using a Lagrange interpolation, signals from 82 additional virtual electrodes were calculated to provide high resolution topographical maps. […] Data were analysed from 0.86 to 35 Hz using the CATEEM® software. […]

Molecule: CC(Oc1c(Cl)cccc1Cl)C1=NCCN1 (single isomer, unassigned; (-)) [(-)lofexidine]
- change of EEG theta, alpha1,2 and beta1,2 power [1]: Combined increases in theta, alpha1,2 and beta1,2 power

Molecule: C[C@@H](O)CC(=O)[O-].[Na+] [KTX 0101, sodium salt of (R)-3-hydroxybutyrate]
- time after end of infusion up to which EEG changes could be traced [2]: up to 24 hours
- change of EEG electrical power relative to pre-drug values ([2]; averaged over 15 electrode positions, during and after infusion): increases of electrical power were observed, especially with respect to theta, alpha and beta power
- change of EEG electrical power relative to pre-dose values ([2]; eyes closed, centro-parietal regions, theta, alpha1, alpha2 and beta 1 ranges): increases of electrical power could be observed for the 6 h time period, less for the 12 h period but consistently thereafter
- change of EEG electrical power relative to pre-dose values ([2]; eyes open, single electrode positions (FIG. 1)): an increase of delta and theta power as well as of alpha power is observed

Molecule: Clc1cccc(Cl)c1N=C1NCCN1 [clonidine]
- change of EEG theta, alpha1,2 and beta1,2 power [1]: Combined increases in theta, alpha1,2 and beta1,2 power

Molecule: FC(F)OC(F)C(F)(F)F (stereo not shown) [desflurane]
- change of EEG alpha1,2 and beta1,2 power [1]: combined increases in alpha1,2 and beta1,2 power

Molecule: FC(F)OC(F)(F)C(F)Cl (stereo not shown) [enflurane]
- change of EEG alpha1,2 and beta1,2 power [1]: combined increases in alpha1,2 and beta1,2 power

Molecule: N=C(N)NC(=O)Cc1c(Cl)cccc1Cl [guanfacine]
- change of EEG theta, alpha1,2 and beta1,2 power [1]: Combined increases in theta, alpha1,2 and beta1,2 power

Molecule: FC(F)(F)C(Cl)Br (stereo not shown) [halothane]
- change of EEG alpha1,2 and beta1,2 power [1]: combined increases in alpha1,2 and beta1,2 power

Molecule: COc1nc(C)nc(Cl)c1N=C1NCCN1 [maxonidine]
- change of EEG theta, alpha1,2 and beta1,2 power [1]: Combined increases in theta, alpha1,2 and beta1,2 power

Molecule: Cc1cccc(C(C)c2c[nH]cn2)c1C (stereo not shown) [metedomidine]
- change of EEG theta, alpha1,2 and beta1,2 power [1]: Combined increases in theta, alpha1,2 and beta1,2 power

Molecule: isoflurothane
- change of EEG alpha1,2 and beta1,2 power [1]: combined increases in alpha1,2 and beta1,2 power
